From PMC6591251, “Discovery of potent necroptosis inhibitors targeting RIPK1 kinase activity for the treatment of inflammatory disorder and cancer metastasis” (Cell Death & Disease, 2019)
Converted amounts (≈) assume the structure as drawn. “And” between values parts separate entries of the source, which are not always exact repeats. Equal entries are not always repeated.

What was measured:
mouse RIPK1 = target: T1, mouse RIPK1 (Mus musculus, UniProt Q60855); assay: In vitro kinase activity assay (ADP-Glo); type: biochemical; details: recombinant mouse RIPK1
T1 construct: purchased SignalChem
Procedure: (§1) Having shown that PK6 and PK68 can inhibit activation of both RIPK1 and RIPK3 during TNF-mediated necroptosis, we sought to determine if PK6 and PK68 can directly target RIPK1 or and RIPK3 by performing in vitro kinase assays. Both PK6 and PK68 were able to block the kinase activities of both human RIPK1 and mouse RIPK1 in vitro (Fig. 4a and Supplementary Fig. 19).
(§2) The recombinant RIPK1 or RIPK3 protein was incubated with DMSO or the indicated compound for 15 min in the assay buffer (25 mM HEPES pH 7.2, 20 mM MgCl2, 12.5 mM MnCl2, 12.5 mM β-glycerol phosphate, 5 mM EGTA, 2 mM EDTA, and 2 mM DTT). Then, ATP (50 μM) and the substrate MBP (20 μM) were added to the reaction at room temperature for 120 min. The luminescence was measured to calculate the kinase activity after the addition of the ADP-Glo Kinase Assay kit following the manufacturer’s instructions (Promega).
Supplementary Figure 19. Both PK6 and PK68 were able to block the kinase activity of mouse RIPK1 in vitro.
In vitro kinase activity assays using recombinant mouse RIPK1 were performed. Recombinant proteins were incubated with PK6(A) and PK68(B) as indicated. Data represent mean value ±standard deviation.

[1] = test system: phosphorylation of RIPK1, RIPK3, and MLKL in HT-29 cells; assay: Western blot of necroptotic signaling after T/S/Z; type: cell-based, human; details: T/S/Z 8 h
Description: (§3) In addition to TNF-induced necroptosis, it is known that TLR3 or TLR4 activation can also trigger necroptosis. We further evaluated the effects of PK6 and PK68 on TLR3- and TLR4-mediated necroptosis induced by poly(I:C)/z-VAD and LPS/z-VAD, respectively. […] To investigate the molecular mechanism of PK series-mediated necroptosis inhibition, we examined the effects of these compounds on the major steps of necroptotic signaling, including activation of RIPK1, RIPK3, and MLKL. […] It has been shown previously that RIPK3 activation leads to the formation of RIPK3 puncta during necroptosis.
(§4) Fig. 3 PK6 and PK68 block cellular activation of RIPK1, RIPK3, and MLKL upon necroptotic stimuli. a, b Bone marrow-derived macrophages from C57BL/6 mice or rat were pretreated with DMSO, PK6(10 μM), or PK68 (100 nM) for 1 h and subsequently treated with indicated stimuli for 24–30 h. Cell viability was determined by measuring ATP levels. L, LPS (20 ng/ml); P, poly(I:C) (50 μg/ml); S (100 nM); Z (10 μM). Data are represented as the mean ± standard deviation of triplicates. c HT-29 cells were treated with the indicated compound for 1 h prior to the treatment of T (40 ng/ml), S (100 nM), and Z (20 μM) for additional 8 h. […] The distribution of RIPK3 was detected by immunofluorescence. *P < 0.05. **P < 0.01. ***P < 0.001 […]

[2] = test system: mouse bone marrow-derived macrophages; assay: TLR3- and TLR4-mediated necroptosis (poly(I:C)/z-VAD, LPS/z-VAD); type: cell-based; details: mouse BMDM; PK6 10 μM, PK68 100 nM; 24–30 h
Description: as §3
as §4, with “μM).” for “μM). Data are represented as the mean ± standard deviation of triplicates. c HT-29 cells were treated with the indicated compound for 1 h prior to the treatment of T (40 ng/ml), S (100 nM), and Z (20 μM) for additional 8 h.”
The cell viability was analyzed by using the CellTiter-Glo Luminescent Cell Viability Assay kit following the manufacturer’s instructions (Promega). Luminescence was measured with SpectraMax i3x (Molecular Devices).

[3] = Solubility in FaSSIF, LC/MS/MS; type: physicochemical; details: for solubility: pH= 6.5 FaSSIF, LC/MS/MS, duplicates
Procedure: ^a Calculated by ACDlabs. ^b Data are measured duplicates in pH= 6.5 FaSSIF using LC/MS/MS. ^c Data are determined three times by SMP10 melting point apparatus.

human RIPK1 = target: T2, human RIPK1 (Homo sapiens, UniProt Q13546); assay: In vitro kinase activity assay (ADP-Glo); type: biochemical; details: recombinant RIPK1; ATP 50 μM
T2 construct: purchased SignalChem
Procedure: as §1
Recombinant proteins were incubated with PK6 and PK68 as indicated. […] NIH3T3-RIPK3 cells were pretreated with indicated compounds for 1 h and subsequently treated with T (40 ng/ml)/S (100 nM)/Z (20 μM) or AP20187 (100 nM) for 24 h. Cell viability was determined by measuring ATP levels. e PK6 and PK68 have no effect on MLKL dimerization-induced cell death in HeLa-MLKL (1–190) cells that stably express MLKL (1–190aa) fused to DmrB. HeLa-MLKL (1–190) cells were pretreated with indicated compounds for 1 h and subsequently treated with AP20187 (100 nM) for 24 h. Cell viability was determined by measuring ATP levels.
as §2, with “Then, ATP (50 μM) and the substrate MBP (20 μM) were added to the reaction at room temperature for 120 min.” left out

RIPK3 = target: T3, RIPK3 (Homo sapiens, UniProt Q9Y572); assay: In vitro kinase activity assay (ADP-Glo); type: biochemical; details: even at a 1000 nM concentration
T3 construct: purchased Reaction Biology Corporation
Procedure: as §1
Recombinant proteins were incubated with PK6 and PK68 as indicated. […] NIH3T3-RIPK3 cells were pretreated with indicated compounds for 1 h and subsequently treated with T (40 ng/ml)/S (100 nM)/Z (20 μM) or AP20187 (100 nM) for 24 h. Cell viability was determined by measuring ATP levels. e PK6 and PK68 have no effect on MLKL dimerization-induced cell death in HeLa-MLKL (1–190) cells that stably express MLKL (1–190aa) fused to DmrB. HeLa-MLKL (1–190) cells were pretreated with indicated compounds for 1 h and subsequently treated with AP20187 (100 nM) for 24 h. Cell viability was determined by measuring ATP levels. […]
as §2, with “Then, ATP (50 μM) and the substrate MBP (20 μM) were added to the reaction at room temperature for 120 min.” left out

T2 sequence (Q13546 whole entry): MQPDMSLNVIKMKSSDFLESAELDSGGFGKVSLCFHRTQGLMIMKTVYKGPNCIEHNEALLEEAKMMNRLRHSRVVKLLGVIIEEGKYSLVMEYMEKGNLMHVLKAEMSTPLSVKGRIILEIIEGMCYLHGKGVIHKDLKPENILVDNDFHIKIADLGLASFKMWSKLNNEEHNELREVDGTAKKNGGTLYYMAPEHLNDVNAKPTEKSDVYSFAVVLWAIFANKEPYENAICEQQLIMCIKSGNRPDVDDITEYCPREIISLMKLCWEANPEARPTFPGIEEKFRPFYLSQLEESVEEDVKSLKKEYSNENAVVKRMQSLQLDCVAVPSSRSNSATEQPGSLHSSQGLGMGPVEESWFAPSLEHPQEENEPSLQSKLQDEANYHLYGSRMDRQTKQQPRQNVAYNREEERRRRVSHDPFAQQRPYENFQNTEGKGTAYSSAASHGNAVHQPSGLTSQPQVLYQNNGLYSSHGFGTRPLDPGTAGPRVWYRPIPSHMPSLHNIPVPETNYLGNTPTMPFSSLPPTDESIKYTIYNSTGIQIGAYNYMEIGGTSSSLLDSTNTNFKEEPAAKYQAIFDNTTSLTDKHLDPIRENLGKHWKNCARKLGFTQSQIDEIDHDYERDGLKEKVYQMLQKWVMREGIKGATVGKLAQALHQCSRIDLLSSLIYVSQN
T1 sequence (Q60855 whole entry): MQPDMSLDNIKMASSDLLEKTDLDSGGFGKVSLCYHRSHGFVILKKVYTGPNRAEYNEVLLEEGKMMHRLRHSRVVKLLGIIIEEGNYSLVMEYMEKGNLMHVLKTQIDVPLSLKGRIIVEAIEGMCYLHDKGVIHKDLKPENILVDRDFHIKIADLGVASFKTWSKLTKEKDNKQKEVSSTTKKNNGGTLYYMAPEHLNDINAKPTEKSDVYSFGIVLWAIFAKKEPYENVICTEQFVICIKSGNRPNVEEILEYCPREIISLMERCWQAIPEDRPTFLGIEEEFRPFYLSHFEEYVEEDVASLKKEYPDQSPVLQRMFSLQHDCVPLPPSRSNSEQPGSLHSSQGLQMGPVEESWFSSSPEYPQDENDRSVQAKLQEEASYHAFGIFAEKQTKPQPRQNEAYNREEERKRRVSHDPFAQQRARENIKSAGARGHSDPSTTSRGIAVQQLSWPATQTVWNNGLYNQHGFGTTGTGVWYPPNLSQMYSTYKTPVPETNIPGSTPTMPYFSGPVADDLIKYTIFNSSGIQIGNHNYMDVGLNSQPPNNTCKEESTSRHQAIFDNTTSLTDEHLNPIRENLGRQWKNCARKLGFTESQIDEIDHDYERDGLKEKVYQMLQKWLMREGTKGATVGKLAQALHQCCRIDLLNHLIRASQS
T3 sequence (Q9Y572 whole entry): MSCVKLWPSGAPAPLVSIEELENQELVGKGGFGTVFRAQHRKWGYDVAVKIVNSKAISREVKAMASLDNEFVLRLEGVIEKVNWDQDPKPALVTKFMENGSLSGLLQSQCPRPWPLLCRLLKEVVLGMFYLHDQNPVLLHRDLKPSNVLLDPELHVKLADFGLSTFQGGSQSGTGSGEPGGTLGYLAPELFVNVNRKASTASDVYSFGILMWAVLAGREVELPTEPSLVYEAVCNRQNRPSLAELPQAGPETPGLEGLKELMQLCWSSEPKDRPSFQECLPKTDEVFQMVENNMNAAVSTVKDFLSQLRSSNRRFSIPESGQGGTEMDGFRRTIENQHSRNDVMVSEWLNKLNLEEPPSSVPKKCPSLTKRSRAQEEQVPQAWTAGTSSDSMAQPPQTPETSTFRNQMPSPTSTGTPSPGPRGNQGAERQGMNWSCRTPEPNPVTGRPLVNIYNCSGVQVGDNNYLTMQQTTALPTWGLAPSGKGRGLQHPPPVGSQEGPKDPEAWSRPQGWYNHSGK

| Structure (SMILES) | kinase activity of mouse RIPK1 in vitro (mouse RIPK1) | phosphorylation of RIPK1, RIPK3, and MLKL [1] | TLR3- and TLR4-mediated necroptosis [2] | solubility (in words) [3] | solubility [3] [µg/mL] | IC50 (human RIPK1) | RIPK3 kinase activity (RIPK3) |
| --- | --- | --- | --- | --- | --- | --- | --- |
| CC(=O)Nc1nc2ccc(-c3cnc(Cl)c(NC(=O)Cc4ccccc4)c3)cc2s1 [PK6, N-(5-(2-acetamidobenzo[d]thiazol-6-yl)-2-chloropyridin-3-yl)-2-phenylacetamide] | able to block | completely abolished | significantly blocked | poor | 0.09 (≈ 0.206 µM) | 200 ± 130 nM | neither PK6 nor PK68 affected RIPK3 kinase activity |
| CC(=O)Nc1nc2ccc(-c3cnc(C)c(NC(=O)OC4CCCCC4)c3)cc2s1 [PK68, cyclohexyl (5-(2-acetamidobenzo[d]thiazol-6-yl)-2-methylpyridin-3-yl)carbamate] | able to block | completely abolished | significantly blocked |  | 0.56 (≈ 1.32 µM) | ~90 nM and 90 nM | neither PK6 nor PK68 affected RIPK3 kinase activity |
